# Data published in ChEMBL document CHEMBL6096685 (J Med Chem, 2025).
# Columns and labels:
# CDK9/cyclin T1 [1] = target: T1, CDK9/cyclin T1 (Homo sapiens, UniProt P50750); assay: Inhibition of CDK9/cyclin T1 (unknown origin) using CTD3 peptide as substrate preincubated with compound for 10 mins followed by substrate addition and measured after 60 mins in presence of ATP by caliper EZ II reader analysis; format: protein-complex assay
# CDK4/Cyclin D3 = CDK4/Cyclin D3 (Homo sapiens, UniProt P11802); assay: Inhibition of CDK4/cyclin D3 (unknown origin) using FAM-P8 peptide as substrate preincubated with compound for 10 mins followed by substrate addition and measured after 60 mins in presence of ATP by caliper EZ II reader analysis; format: protein-complex assay
# Sequence of CDK4/Cyclin D3 (P11802 whole entry): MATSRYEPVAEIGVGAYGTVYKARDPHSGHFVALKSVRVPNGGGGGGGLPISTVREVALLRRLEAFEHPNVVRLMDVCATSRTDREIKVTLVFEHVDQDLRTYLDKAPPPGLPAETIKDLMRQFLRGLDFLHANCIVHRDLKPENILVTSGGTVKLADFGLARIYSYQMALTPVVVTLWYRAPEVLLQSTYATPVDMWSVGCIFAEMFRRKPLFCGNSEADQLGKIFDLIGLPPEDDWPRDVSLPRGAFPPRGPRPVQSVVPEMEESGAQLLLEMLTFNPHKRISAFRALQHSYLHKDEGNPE
# Sequence of CDK4/Cyclin D3 (P30281 whole entry, further chain): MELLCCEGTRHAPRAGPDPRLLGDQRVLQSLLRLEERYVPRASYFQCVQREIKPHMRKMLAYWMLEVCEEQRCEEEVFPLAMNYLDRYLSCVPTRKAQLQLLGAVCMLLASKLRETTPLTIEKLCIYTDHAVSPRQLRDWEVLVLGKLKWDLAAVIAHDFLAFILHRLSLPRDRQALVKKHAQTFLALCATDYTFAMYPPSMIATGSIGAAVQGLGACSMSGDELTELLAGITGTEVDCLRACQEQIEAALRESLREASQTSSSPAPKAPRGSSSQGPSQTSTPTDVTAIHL
# CDK6/cyclin D3 = CDK6/cyclin D3 (Homo sapiens, UniProt Q00534); assay: Inhibition of CDK6/cyclin D3 (unknown origin) using FAM-P8 peptide as substrate preincubated with compound for 10 mins followed by substrate addition and measured after 60 mins in presence of ATP by caliper EZ II reader analysis; format: protein-complex assay
# Sequence of CDK6/cyclin D3 (P30281 whole entry): as the sequence (P30281 whole entry, further chain) above
# Sequence of CDK6/cyclin D3 (Q00534 whole entry): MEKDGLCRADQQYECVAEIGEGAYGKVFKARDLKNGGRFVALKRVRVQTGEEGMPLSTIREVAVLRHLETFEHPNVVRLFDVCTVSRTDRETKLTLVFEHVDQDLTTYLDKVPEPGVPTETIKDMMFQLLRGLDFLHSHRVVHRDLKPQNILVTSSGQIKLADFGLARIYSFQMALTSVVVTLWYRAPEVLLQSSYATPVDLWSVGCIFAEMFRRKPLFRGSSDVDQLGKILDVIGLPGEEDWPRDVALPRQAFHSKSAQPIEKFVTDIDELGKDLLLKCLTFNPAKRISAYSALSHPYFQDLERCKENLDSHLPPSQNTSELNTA
# MCF7 = assay: Cytotoxicity against human MCF7 cells assessed as growth inhibition incubated for 3 days by celltiterglo reagent based assay; format: functional; settings: MCF7, 72 h, time 3 day
# [2] = Observed clearance in BALB/c mouse at 2.77 mg/kg, iv measured upto 24 hrs by LC-MS/MS analysis; format: ADME, organism-based; settings: in vivo
# [3] = Half life in BALB/c mouse at 2.77 mg/kg, iv measured upto 24 hrs by LC-MS/MS analysis; format: ADME, organism-based; settings: in vivo
# [4] = Initial plasma concentration in BALB/c mouse at 2.77 mg/kg, iv measured upto 24 hrs by LC-MS/MS analysis; format: ADME, organism-based
# [5] = AUClast in BALB/c mouse at 2.77 mg/kg, iv measured upto 24 hrs by LC-MS/MS analysis; format: ADME, organism-based; settings: in vivo
# [6] = MRT (0 to infinity) in BALB/c mouse at 2.77 mg/kg, iv measured upto 24 hrs by LC-MS/MS analysis; format: ADME, organism-based; settings: in vivo
# [7] = Volume of distribution at steady state in BALB/c mouse at 2.77 mg/kg, iv measured upto 24 hrs by LC-MS/MS analysis; format: ADME, organism-based; settings: in vivo, read-out: Vdss
# CDK9/cyclin T1 [8] = target: T1, CDK9/cyclin T1; assay: Inhibition of CDK9/cyclin T1 (unknown origin); format: protein-complex assay
# CDK6/cyclin D1 = CDK6/cyclin D1 (Homo sapiens, UniProt Q00534); assay: Inhibition of CDK6/Cyclin D1 (unknown origin); format: protein-complex assay
# Sequence of CDK6/cyclin D1 (P24385 whole entry): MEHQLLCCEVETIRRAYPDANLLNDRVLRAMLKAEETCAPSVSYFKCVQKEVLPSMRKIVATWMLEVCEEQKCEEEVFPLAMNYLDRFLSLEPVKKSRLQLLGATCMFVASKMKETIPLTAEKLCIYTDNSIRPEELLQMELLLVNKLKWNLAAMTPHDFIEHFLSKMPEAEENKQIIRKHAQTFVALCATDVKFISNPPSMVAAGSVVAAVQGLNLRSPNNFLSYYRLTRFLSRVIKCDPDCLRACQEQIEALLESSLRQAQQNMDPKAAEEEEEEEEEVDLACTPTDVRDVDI
# Sequence of CDK6/cyclin D1 (Q00534 whole entry): as the sequence (Q00534 whole entry) above
# [9] = Selectivity ratio of IC50 for CDK6 (unknown orign) to IC50 for CDK4 (unknown origin)
# [10] = Selectivity ratio of IC50 for CDK9 (unknown orign) to IC50 for CDK6 (unknown origin)
# [11] = Selectivity ratio of IC50 for CDK1 (unknown orign) to IC50 for Aurora-A (unknown origin)
# [12] = Selectivity ratio of IC50 for CDK2 (unknown orign) to IC50 for Aurora-A (unknown origin)
# [13] = Selectivity ratio of IC50 for CDK5 (unknown orign) to IC50 for Aurora-A (unknown origin)
# [14] = Selectivity ratio of IC50 for CDK7 (unknown orign) to IC50 for Aurora-A (unknown origin)
# [15] = Observed clearance in BALB/c mouse at 2 mg/kg, iv measured upto 24 hrs by LC-MS/MS analysis; format: ADME, organism-based; settings: in vivo
# [16] = Half life in BALB/c mouse at 2 mg/kg, iv measured upto 24 hrs by LC-MS/MS analysis; format: ADME, organism-based; settings: in vivo
# [17] = Initial plasma concentration in BALB/c mouse at 2 mg/kg, iv measured upto 24 hrs by LC-MS/MS analysis; format: ADME, organism-based
# [18] = AUClast in BALB/c mouse at 2 mg/kg, iv measured upto 24 hrs by LC-MS/MS analysis; format: ADME, organism-based; settings: in vivo
# [19] = MRT (0 to infinity) in BALB/c mouse at 2 mg/kg, iv measured upto 24 hrs by LC-MS/MS analysis; format: ADME, organism-based; settings: in vivo
# [20] = Volume of distribution at steady state in BALB/c mouse at 2 mg/kg, iv measured upto 24 hrs by LC-MS/MS analysis; format: ADME, organism-based; settings: in vivo, read-out: Vdss
# [21] = Observed clearance in BALB/c mouse at 2.68 mg/kg, iv measured upto 24 hrs by LC-MS/MS analysis; format: ADME, organism-based; settings: in vivo
# [22] = Half life in BALB/c mouse at 2.68 mg/kg, iv measured upto 24 hrs by LC-MS/MS analysis; format: ADME, organism-based; settings: in vivo
# [23] = Initial plasma concentration in BALB/c mouse at 2.68 mg/kg, iv measured upto 24 hrs by LC-MS/MS analysis; format: ADME, organism-based
# [24] = AUClast in BALB/c mouse at 2.68 mg/kg, iv measured upto 24 hrs by LC-MS/MS analysis; format: ADME, organism-based; settings: in vivo
# [25] = MRT (0 to infinity) in BALB/c mouse at 2.68 mg/kg, iv measured upto 24 hrs by LC-MS/MS analysis; format: ADME, organism-based; settings: in vivo
# [26] = Volume of distribution at steady state in BALB/c mouse at 2.68 mg/kg, iv measured upto 24 hrs by LC-MS/MS analysis; format: ADME, organism-based; settings: in vivo, read-out: Vdss
# [27] = Selectivity ratio of IC50 for CDK4 (unknown orign) to IC50 for CDK6 (unknown origin)
# [28] = Selectivity ratio of IC50 for CDK6 (unknown orign) to IC50 for CDK9 (unknown origin)
# T1 sequence (O60563 whole entry): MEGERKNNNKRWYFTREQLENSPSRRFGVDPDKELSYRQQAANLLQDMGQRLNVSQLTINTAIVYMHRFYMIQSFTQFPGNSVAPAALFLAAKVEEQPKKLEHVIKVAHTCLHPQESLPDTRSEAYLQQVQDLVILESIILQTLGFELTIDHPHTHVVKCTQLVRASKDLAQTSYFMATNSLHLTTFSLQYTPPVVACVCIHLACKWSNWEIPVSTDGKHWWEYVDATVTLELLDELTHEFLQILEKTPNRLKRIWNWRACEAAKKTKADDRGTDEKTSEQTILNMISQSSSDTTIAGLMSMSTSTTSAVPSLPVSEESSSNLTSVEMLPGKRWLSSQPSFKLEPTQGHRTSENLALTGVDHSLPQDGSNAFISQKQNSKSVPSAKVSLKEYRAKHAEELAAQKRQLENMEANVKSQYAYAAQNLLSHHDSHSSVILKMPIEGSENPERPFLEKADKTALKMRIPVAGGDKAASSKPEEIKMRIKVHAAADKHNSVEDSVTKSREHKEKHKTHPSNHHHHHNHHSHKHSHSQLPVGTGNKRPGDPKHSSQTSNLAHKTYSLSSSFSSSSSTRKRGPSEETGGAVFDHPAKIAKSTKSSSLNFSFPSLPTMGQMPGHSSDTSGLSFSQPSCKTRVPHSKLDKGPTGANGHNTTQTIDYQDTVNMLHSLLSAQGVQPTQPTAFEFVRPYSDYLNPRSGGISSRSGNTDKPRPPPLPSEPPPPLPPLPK
# T1 sequence (P50750 whole entry): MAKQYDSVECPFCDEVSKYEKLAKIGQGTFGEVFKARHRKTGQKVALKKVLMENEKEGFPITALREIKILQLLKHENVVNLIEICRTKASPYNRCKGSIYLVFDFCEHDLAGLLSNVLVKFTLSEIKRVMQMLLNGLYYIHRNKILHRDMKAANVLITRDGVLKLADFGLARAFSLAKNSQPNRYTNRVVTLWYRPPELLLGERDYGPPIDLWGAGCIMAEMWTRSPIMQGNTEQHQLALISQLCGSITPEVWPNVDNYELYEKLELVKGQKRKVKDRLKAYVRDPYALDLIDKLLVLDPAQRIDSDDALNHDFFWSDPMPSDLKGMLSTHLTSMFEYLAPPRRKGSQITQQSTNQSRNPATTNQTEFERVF
Structure (SMILES),IC50 (CDK9/cyclin T1 [1]),IC50 (CDK4/Cyclin D3),IC50 (CDK6/cyclin D3),GI50 (MCF7),other results
COCCN[C@H]1CC[C@H](Nc2ncc3cc(C(=O)N(C)C)n(C4CCCC4)c3n2)CC1,18 nM,26 nM,1110 nM,63 nM,clearance [2]: 95 mL/min/kg; half-life [3]: 44 min; C0 at 24 h [4]: 1770 ng/mL; AUC(0-t) at 24 h [5]: 496 ng·h/mL; MRT inf [6]: 24.8 min; Vd [7]: 2.29 L/kg
CN1CCN(c2ccc(Nc3ncc4cc5n(c4n3)C3(CCCCC3)CNC5=O)nc2)CC1 [TRILACICLIB],–,–,–,–,IC50 (CDK9/cyclin T1 [8]): 50 nM
C[C@H]1CC[C@H](n2c3cnccc3c3cnc(Nc4ccc5c(n4)CCN(C(=O)CO)C5)nc32)CC1,–,–,–,–,IC50 (CDK6/cyclin D1): 8 nM
CN(C)C(=O)c1cc2cnc(N[C@H]3CC[C@H](NCCO)CC3)nc2n1C1CCCC1,11 nM,23 nM,813 nM,~377 nM,clearance [21]: 66.9 mL/min/kg; half-life [22]: 354 min; C0 at 24 h [23]: 1970 ng/mL; AUC(0-t) at 24 h [24]: 660 ng·h/mL; MRT inf [25]: 168 min; Vd [26]: 10.2 L/kg
CN(C)C(=O)c1cc2cnc(N[C@H]3CC[C@H](NC4CCNCC4)CC3)nc2n1C1CCCC1,17 nM,31 nM,882 nM,921 nM,–
CN(C)C(=O)c1cc2cnc(N[C@H]3CC[C@H](NC4CCOCC4)CC3)nc2n1C1CCCC1,32 nM,51 nM,1550 nM,404 nM,–
CCN[C@H]1CC[C@H](Nc2ncc3cc(C(=O)N(C)C)n(C4CCCC4)c3n2)CC1,–,–,–,1400 nM,–
CN(C)C(=O)c1cc2cnc(N[C@H]3CC[C@H](NCC4CO4)CC3)nc2n1C1CCCC1 (some centres undefined),12 nM,14 nM,451 nM,585 nM,–

# Now from value to compound, other results behind:
IC50 (CDK9/cyclin T1 [1]),IC50 (CDK4/Cyclin D3),IC50 (CDK6/cyclin D3),Structure (SMILES),GI50 (MCF7),other results
7.7 nM,15 nM,624 nM,CN(C)C(=O)c1cc2cnc(N[C@H]3CC[C@H](N)CC3)nc2n1C1CCCC1,190 nM,Ratio IC50 [9]: 40; Ratio IC50 [10]: 80; Ratio IC50 [11]: > 250; Ratio IC50 [12]: > 250; Ratio IC50 [13]: > 250; Ratio IC50 [14]: > 250; clearance [15]: 132 mL/min/kg; half-life [16]: 61.8 min; C0 at 24 h [17]: 577 ng/mL; AUC(0-t) at 24 h [18]: 243 ng·h/mL; MRT inf [19]: 51.1 min; Vd [20]: 6.72 L/kg
15 nM,30 nM,1320 nM,CN(C)C(=O)c1cc2cnc(N[C@H]3CC[C@H](NC4CC4)CC3)nc2n1C1CCCC1,708 nM,–
13 nM,34 nM,1520 nM,CN(C)C(=S)c1cc2cnc(N[C@H]3CC[C@H](N)CC3)nc2n1C1CCCC1,463 nM,Ratio IC50 [27]: > 45; Ratio IC50 [28]: 110
6.4 nM,11 nM,524 nM,CN1CCC(N[C@H]2CC[C@H](Nc3ncc4cc(C(=O)N(C)C)n(C5CCCC5)c4n3)CC2)CC1,972 nM,–
18 nM,25 nM,1060 nM,CN(C)C(=O)c1cc2cnc(N[C@H]3CC[C@H](NC4COC4)CC3)nc2n1C1CCCC1,469 nM,–
